Measurements from US20040077599A1, “Novel spiro[2.4]heptane amino carboxy compounds and derivatives thereof” (priority 2000, published 2004).
Where two headings read alike, the source gives them in different places.

Legend:
[1] = molecular target: Group I metabotropic glutamate receptors (mGluRs); assay: Phosphatidylinositol assay (inositol phosphate accumulation in neonatal tissue slices); format: cell-based, Sprague Dawley rat; details: neonatal rat slices, 45 minutes; for EC50: antagonist mode vs ACPD; for Group I Agonist: increase in intracellular free inositol phosphate accumulation; for Group I Antagonist: inhibits inositol phosphate accumulation induced by ACPD
Method: Phosphatidylinositol (PI) hydrolysis can be measured as described below: Briefly, cross-chopped slices are prepared from neonatal Sprague Dawley rat tissue (age: p7-p14). The slices are pre-labelled with [^3H] myo-inositol. Following pre-labelling, the slices are incubated with the test drugs and standard (known Group I agonists i.e. ACPD) for a period of 45 minutes. The incubation is terminated by the addition of chloroform/methanol/HCl (100:200:2). The resulting mixture is separated into two phases by the addition of chloroform and distilled water. The aqueous fraction is applied to ion exchange columns, and inositol phosphates are eluted using 800 mM Ammonium Formate/100 mM Formic Acid. The eluent is then analyzed using liquid scintillation counting. The amount of inositol phosphate accumulation is expressed as a percentage of that induced by ACPD.
Group I metabotropic glutamate receptors (mGluRs) are positively coupled on inositol phosphate metabolism. Agonists at these receptors lead to an increase in intracellular free inositol phosphates, while antagonists inhibit the increase in intracellular free inositol phosphate induced by standard agonists (i.e. ACPD).
Cross-chopped slices were prepared from neonatal Sprague Dawley rat tissue (age: p7-p14). The slices were pre-labelled with [^3H] myo-inositol. Following pre-labelling, the slices were incubated with the test compounds and standard (known Group I agonists i.e. ACPD) for a period of 45 minutes. The incubation was terminated by the addition of chloroform/methanol/HCl (100:200:2). The resulting mixture was separated into two phases by the addition of chloroform and distilled water. The aqueous fraction was applied to ion exchange columns, and inositol phosphates were eluted using 800 mM Ammonium Formate/100 mM Formic Acid. The eluent was then analyzed using liquid scintillation counting. The amount of inositol phosphate accumulation was expressed as a percentage of that induced by ACPD.
If the drugs cause an increase in intracellular free inositol phosphate accumulation, they are considered to be Group I agonists. […]

[2] = molecular target: Group II/III metabotropic glutamate receptors (mGluRs); assay: Cyclic AMP assay (forskolin-induced cyclic AMP accumulation in cortical slices); format: cell-based, Sprague Dawley rat; details: rat cortical slices; for Group II/III Agonist: inhibits forskolin-induced cyclic AMP accumulation; for Group II/III Antagonist: inhibits the glutamate-caused decrease in forskolin-induced cyclic AMP accumulation
Method: The assay of cyclic AMP formation can be performed as described previously (Tovey et al., Clinica Chimica Acta, 56, 221-234, 1974). The assay can be modelled on the cyclic AMP assay kit available from Amersham, which in turn, is based on the assay created by Tovey et al. Briefly, samples are prepared from Sprague Dawley rat (225-250 g) cortical slices. Slices are incubated with the drug, and then challenged with forskolin to induce cyclic AMP release. Following termination of the reaction by boiling, the slices are homogenized and centrifuged. Samples of supernatant are then incubated for 2-3 hours with a known quantity of [^3H]cAMP and a binding protein. When the incubation is complete, the bound cyclic AMP is separated from the free cyclic AMP by centrifugation with charcoal. The resulting supernatant (containing free cyclic AMP) is then analyzed by liquid scintillation counting. The amount of unbound cyclic AMP can be calculated from a standard curve previously determined with various samples of free cyclic AMP.
Group II/III metabotropic glutamate receptors (mGluRs) are negatively coupled to adenylate cyclase, and agonists of these receptors lead to a decrease in intracellular cyclic AMP accumulation.
The assay has been modeled on the cyclic AMP assay kit available from Amersham. This kit, in turn, is based on the assay created by Tovey et al. (1974). Briefly, the samples were prepared from Sprague Dawley rat (225-250 g) cortical slices. Slices were incubated with the test compound (drug), and then challenged with forskolin to induce cyclic AMP release. Following termination of the reaction by boiling, the slices were homogenized and centrifuged. Samples of supernatant were then incubated for 2-3 hours with a known quantity of [^3H]cAMP and a binding protein. When the incubation was complete, the bound cyclic AMP was separated from the free cyclic AMP by centrifugation with charcoal. The resulting supernatant (containing free cyclic AMP) was then analyzed by liquid scintillation counting. The amount of unbound cyclic AMP was calculated from a standard curve previously determined with various samples of free cyclic AMP.
If the drugs tested inhibit forskolin-induced cyclic AMP accumulation, they are considered to be Group II/III agonists. Conversely, if they inhibit the decrease in forskolin-induced cyclic AMP accumulation caused by glutamate, they are considered to be Group II/III antagonists.

[3] = agonist mode, read-out: EC50 (M), Group II/III Agonist
[4] = antagonist mode vs glutamate, read-out: EC50 (M), Group II/III Antagonist

| SMILES | EC50 [1] [nM] | Group I Agonist [1] | Group I Antagonist [1] | EC50 [2, 3] [M] | Group II/III Agonist [2] | Group II/III Antagonist [2] | EC50 [2, 4] [M] |
| --- | --- | --- | --- | --- | --- | --- | --- |
| NC(C(=O)O)C1CCCC12CC2C(=O)O (centres unmarked) [Compound 26, Spiro[4,2]heptane-1-carboxy-4-glycine] | 88 | No | Yes | 1.6e-06 | Yes | Yes |  |
| NC(C(=O)O)C1CCCC12CC2C(=O)O (centres unmarked) [Compound 27, Spiro[4,2]heptane-1-carboxy-4-glycine] | 0.84 | No | Yes | 8.7e-11 | Yes | Yes |  |
| NC1(C(=O)O)CCCC12C(C(=O)O)C2c1ccccc1 (centres unmarked) [Compound 16, Spiro[2.4]heptane4-amino-2-phenyl-1,4-dicarboxylic Acid] | 100 | No | Yes | 1e-09 | Yes | No |  |
| N[C@@]1(C(=O)O)CCCC12CC2C(=O)O (some centres unmarked) [Compound 7, Spiro[2.4]heptane-4-amino-1,4-dicarboxylic acid] | 220 | No | Yes |  | No | Yes | 1.4e-09 |
| NC1(C(=O)O)CC2(CC2C(=O)O)c2ccccc21 (centres unmarked) [Compound 22, 1-Amino-1-carboxyindan-3-spiro-cyclopropanecarboxylic Acid] |  | No | No |  | No | No | 8.7e-10 |
| N[C@]1(C(=O)O)CCCC12CC2C(=O)O (some centres unmarked) [Compound 8, Spiro[2.4]heptane-4-amino-1,4-dicarboxylic acid] | 94 | No | Yes |  | No | yes | 1e-06 |
